# Laboratory results: patent US5646261A, “3'-derivatized oligonucleotide analogs with non-nucleotidic groupings, their preparation and use” (Hoechst Aktiengesellschaft, priority 1992, dated 1997)
# {Psoralen} = psoralen conjugate attached via phosphate
# Key:
# [1] = test system: E1b (SP1 binding region of adenovirus E1b); assay: Inhibition of transcription of E1b; conditions: as sense oligonucleotide, simulates the SP1 binding region
# HSV-1 = assay: Inhibition of HSV-1 viral replication in cell culture; type: cell-based, herpes simplex virus type 1
substance,measurement,setting,value
"d(GpGpGpCpGpGpGpGpCpTpTpApApApGpG(3'5'S)CpCpTpTpTpApApGpCpCpCpCpGpCpCpCp-O- -(CH2 CH2 O)8 (CH2)13 CH3) (DNA GGGCGGGGCTTAAAGNNCTTTAAGCCCCGCCN; chemistry not fully specified) [IB-2, 3'-modified oligonucleotide analog with a 3'5'-spacer]",inhibition of transcription of E1b,[1],inhibits the transcription of E1b
"""psoralen""-pGpGpTpGpTpTpTpGpGpGpGpGpTpTpGpG(5'5'S)GpTpTpGpGpGpGpT2pTpGpTpGpTpGp-""psoralen"") (chain 1 NGTTGGGGGTTTGTGN; chain 2 NTTGGGGTTGTGTN; 3' {Psoralen}, sugars by position, backbone and the base at N not given here; two pieces joined 5'-5' through S linker) [IA-4, oligonucleotide modified with psoralen at both 3'-ends]",inhibition of HSV-1 replication by triplex formation,HSV-1; target: origin of replication (oriL) of the HSV-1 genome,inhibits replication of the latter by triplex formation
d(p-Nitrophenylethyl-2-oxy-pC(5'5'p)GpTpCpCpApTpGpTpCpGpGpCpApApApCpApGpCpTp-O-i-C3 H7) (DNA NNTCCATGTCGGCAAACAGCN; chemistry not fully specified) [IA-2],inhibition of HSV-1 replication,"HSV-1; cell culture, sequence I directed against mRNA of transactivator protein Vmw65, sequences II and III against splice-acceptor region of IE4/5 precursor mRNA",inhibit HSV-1 replication
